# In ChEMBL document CHEMBL1201862, “PubChem BioAssay data set” (2004):
# Calls of active or inactive are those of the source. Rule as the data show it, for most assays here: actives have a measured EC50 and inactives only a lower limit.
# What was measured:
# [1] = target: T1, Serine/threonine-protein phosphatase (Candida dubliniensis (strain CD36 / CBS 7987 / NCPF 3949 / NRRLY-17841) (Yeast), UniProt B9W6M3); test: calcineurin pathway inhibitors in yeast reporter, dose response, S. cerevisiae, CDRE-lacZ, luminescence, secondary (AID 2388); type: functional, cell-based;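 also: yeast reporter cells carrying a calcineurin-responsive lacZ construct stimulated with calcium chloride; luminescent beta-galactosidase reporter signal in whole cells rather than isolated phosphatase activity; potency for inhibition where a drop in reporter signal means calcineurin blockade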
# T1 sequence (B9W6M3 whole entry): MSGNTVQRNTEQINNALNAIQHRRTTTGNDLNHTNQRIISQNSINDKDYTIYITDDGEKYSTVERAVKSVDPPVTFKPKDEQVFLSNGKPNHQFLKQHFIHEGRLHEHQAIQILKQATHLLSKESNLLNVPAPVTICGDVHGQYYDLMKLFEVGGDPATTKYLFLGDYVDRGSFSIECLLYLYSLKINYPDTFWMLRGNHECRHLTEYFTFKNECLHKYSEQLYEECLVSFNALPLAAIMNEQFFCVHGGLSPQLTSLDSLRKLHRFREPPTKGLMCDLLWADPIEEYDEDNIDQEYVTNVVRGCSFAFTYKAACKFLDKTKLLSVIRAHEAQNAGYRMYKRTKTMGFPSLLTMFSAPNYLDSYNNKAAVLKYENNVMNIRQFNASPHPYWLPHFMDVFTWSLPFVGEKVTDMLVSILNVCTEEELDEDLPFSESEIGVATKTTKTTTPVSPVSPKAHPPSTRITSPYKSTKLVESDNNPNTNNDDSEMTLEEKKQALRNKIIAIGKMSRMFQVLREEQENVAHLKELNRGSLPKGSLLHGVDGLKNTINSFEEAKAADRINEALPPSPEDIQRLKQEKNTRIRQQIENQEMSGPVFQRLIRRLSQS
# [2] = target: ATP-dependent molecular chaperone HSP82 (Candida albicans (strain WO-1) (Yeast), UniProt C4YTQ8); test: loss of DOC-induced GRE-beta-galactosidase reporter signal, dose response, Hsp90 inhibitor project, S. cerevisiae, luminescence (AID 2400); type: functional, cell-based;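 also: beta-galactosidase luminescence from glucocorticoid response element reporter as proxy for Hsp90 function; inhibitor potency where signal loss means Hsp90 inhibition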
# ATP-dependent molecular chaperone HSP82, sequence (C4YTQ8 whole entry): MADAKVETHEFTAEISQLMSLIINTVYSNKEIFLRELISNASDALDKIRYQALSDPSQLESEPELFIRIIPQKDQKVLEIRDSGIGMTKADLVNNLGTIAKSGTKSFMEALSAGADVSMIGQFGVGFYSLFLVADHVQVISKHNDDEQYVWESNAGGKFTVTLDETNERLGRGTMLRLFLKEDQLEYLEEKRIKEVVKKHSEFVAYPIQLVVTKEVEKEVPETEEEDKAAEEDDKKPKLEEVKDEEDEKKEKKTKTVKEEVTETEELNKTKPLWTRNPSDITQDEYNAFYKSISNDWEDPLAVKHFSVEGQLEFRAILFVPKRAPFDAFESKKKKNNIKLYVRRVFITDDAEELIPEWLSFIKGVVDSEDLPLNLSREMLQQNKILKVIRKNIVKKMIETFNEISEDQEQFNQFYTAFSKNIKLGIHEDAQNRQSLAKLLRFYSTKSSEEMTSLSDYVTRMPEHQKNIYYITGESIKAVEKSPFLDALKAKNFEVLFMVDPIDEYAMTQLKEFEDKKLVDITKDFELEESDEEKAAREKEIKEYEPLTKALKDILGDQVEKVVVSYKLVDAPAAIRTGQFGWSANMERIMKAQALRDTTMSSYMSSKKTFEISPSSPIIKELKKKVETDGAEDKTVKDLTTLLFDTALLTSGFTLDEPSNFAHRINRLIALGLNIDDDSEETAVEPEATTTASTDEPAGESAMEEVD
# [3] = C. albicans growth with fluconazole, confirmation, fluorescence, retest (AID 2467); type: functional, cell-based
# [4] = NIH-3T3 fibroblast cytotoxicity, dose response, cytotoxicity control, cell-based, fluorescence, Alamar Blue, secondary assay (AID 2327); type: functional;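 also: NIH-3T3 mouse fibroblasts cultured with fluconazole at 8 µg/mL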
# [5] = Vero E6 cell cytotoxicity, dose response, cytotoxicity control for non-replicating M. tuberculosis project, secondary assay (AID 492998); type: functional, VeroE6; details: Vero C1008
# cells [6] = type: functional
# [7] = THP-1 cell cytotoxicity, dose response, cytotoxicity control for non-replicating M. tuberculosis project (AID 489025); type: functional
# Streptococcus = test: Group A Streptococcus viability loss, dose response, counter-screen for streptokinase expression inhibitor project, luminescence, BacTiterGlo (AID 1915); type: functional, organism-based;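 also: potency for reduction of bacterial viability or growth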
# [8] = test system: Streptococcus sp. 'group A'; test: growth inhibition of control SK(-) GAS strain, dose response, counter-screen for streptokinase expression inhibitor project, luminescence, kanamycin, BacTiterGlo, confirmation (AID 1900); type: functional, organism-based
# HEK293 = test: inhibitors of LMP1-driven NF-kB reporter, dose response, cell-based, HEK293, luciferase, cherry-pick (AID 588343); type: functional; details: Homo sapiens
# [9] = target: Luciferin 4-monooxygenase (Photinus pyralis, UniProt P08659); test: firefly luciferase enzyme inhibitors, dose response, biochemical, luminescence (AID 1891)
# Luciferin 4-monooxygenase, sequence (P08659 whole entry): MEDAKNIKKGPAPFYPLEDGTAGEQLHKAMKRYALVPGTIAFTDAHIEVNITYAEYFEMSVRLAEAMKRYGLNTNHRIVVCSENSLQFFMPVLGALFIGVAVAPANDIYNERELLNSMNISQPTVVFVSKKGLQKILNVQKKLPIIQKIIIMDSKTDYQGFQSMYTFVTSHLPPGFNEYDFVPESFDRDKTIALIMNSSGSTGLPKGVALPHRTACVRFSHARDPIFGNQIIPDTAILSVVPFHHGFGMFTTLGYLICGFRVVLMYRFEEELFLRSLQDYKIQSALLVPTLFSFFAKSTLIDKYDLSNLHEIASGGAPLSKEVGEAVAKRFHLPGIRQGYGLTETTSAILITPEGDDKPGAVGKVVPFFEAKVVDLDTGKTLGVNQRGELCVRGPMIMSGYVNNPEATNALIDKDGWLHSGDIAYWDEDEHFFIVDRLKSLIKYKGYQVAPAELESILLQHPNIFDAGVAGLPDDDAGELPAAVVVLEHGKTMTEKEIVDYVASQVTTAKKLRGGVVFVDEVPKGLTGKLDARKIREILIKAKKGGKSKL
# [10] = Luminescence Cell-Based Dose Confirmation HTS to Identify Inhibitors of Platelet Dense Granule Release. [Related pubchem assays: 1663 (Primary HTS), 1678 (Summary of Project)]; type: functional
# [11] = inhibitors of intracellular T. cruzi replication, confirmation, NIH3T3 host cells, beta-gal luminescence (AID 2044); type: functional, cell-based;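 also: intracellular parasites grown in NIH/3T3 mouse fibroblasts as host cells; luminescent beta-galactosidase reporter signal from transgenic T. cruzi replicating inside host cells; inhibitors lower the luminescence signal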
# Beta-galactosidase = Beta-galactosidase (Escherichia coli, UniProt Q8VNN2); test: Dose response counterscreen for EBI2 assay utilizing the enzyme, b-galactosidase.; type: functional
# Beta-galactosidase, sequence (Q8VNN2 whole entry): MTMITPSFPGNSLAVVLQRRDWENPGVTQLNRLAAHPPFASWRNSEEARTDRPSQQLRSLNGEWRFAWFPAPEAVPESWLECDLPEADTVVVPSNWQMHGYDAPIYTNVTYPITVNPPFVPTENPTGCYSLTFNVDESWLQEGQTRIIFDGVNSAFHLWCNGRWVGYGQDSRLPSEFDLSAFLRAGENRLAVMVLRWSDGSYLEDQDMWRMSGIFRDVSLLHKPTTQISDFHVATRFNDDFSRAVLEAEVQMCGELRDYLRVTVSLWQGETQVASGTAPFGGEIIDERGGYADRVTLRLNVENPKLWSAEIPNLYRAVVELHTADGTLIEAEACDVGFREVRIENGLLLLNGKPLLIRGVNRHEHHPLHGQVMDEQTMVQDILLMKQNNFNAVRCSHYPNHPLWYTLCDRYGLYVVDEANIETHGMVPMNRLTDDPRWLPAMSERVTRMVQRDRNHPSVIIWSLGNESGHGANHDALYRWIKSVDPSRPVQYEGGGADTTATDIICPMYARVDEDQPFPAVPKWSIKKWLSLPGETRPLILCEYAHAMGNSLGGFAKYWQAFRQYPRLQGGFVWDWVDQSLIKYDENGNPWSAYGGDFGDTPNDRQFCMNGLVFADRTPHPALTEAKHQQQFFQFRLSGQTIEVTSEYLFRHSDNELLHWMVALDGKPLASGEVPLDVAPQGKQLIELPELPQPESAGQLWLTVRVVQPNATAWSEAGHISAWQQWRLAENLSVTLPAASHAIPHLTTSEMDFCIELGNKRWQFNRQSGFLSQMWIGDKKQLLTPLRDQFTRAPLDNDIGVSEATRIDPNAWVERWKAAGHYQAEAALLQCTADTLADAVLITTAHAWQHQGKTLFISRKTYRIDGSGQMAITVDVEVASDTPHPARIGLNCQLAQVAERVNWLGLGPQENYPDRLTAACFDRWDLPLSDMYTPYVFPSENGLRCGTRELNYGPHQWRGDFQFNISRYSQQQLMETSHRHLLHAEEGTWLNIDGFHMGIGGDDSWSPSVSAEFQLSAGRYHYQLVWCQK
# [12] = target: Peroxisome proliferator-activated receptor gamma/Nuclear receptor coactivator 2 (Homo sapiens, UniProt P37231); test: (§1) TR-FRET dose response biochemical High Throughput Screening assay for agonists of the steroid receptor coactivator 2 (SRC-2) recruitment by the peroxisome proliferator-activated receptor gamma (PPAR gamma): non-selective agonists. [Related pubchem assays: 1297, 1032 ]; type: functional
# Peroxisome proliferator-activated receptor gamma/Nuclear receptor coactivator 2, sequence (P37231 whole entry): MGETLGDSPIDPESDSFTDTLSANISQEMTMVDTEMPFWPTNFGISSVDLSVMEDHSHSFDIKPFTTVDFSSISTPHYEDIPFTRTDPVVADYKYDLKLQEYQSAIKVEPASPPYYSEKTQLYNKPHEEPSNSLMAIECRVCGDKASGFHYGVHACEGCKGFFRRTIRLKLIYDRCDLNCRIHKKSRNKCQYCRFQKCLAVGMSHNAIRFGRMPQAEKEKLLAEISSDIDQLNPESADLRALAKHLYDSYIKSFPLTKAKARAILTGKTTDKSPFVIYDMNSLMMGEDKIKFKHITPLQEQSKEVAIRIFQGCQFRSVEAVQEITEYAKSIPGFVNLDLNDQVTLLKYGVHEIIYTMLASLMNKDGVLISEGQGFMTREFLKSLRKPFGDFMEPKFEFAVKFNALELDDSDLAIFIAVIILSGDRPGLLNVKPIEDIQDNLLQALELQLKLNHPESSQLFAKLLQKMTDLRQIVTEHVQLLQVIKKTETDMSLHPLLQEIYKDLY
# Peroxisome proliferator-activated receptor gamma/Nuclear receptor coactivator 2, sequence (Q15596 whole entry, further chain): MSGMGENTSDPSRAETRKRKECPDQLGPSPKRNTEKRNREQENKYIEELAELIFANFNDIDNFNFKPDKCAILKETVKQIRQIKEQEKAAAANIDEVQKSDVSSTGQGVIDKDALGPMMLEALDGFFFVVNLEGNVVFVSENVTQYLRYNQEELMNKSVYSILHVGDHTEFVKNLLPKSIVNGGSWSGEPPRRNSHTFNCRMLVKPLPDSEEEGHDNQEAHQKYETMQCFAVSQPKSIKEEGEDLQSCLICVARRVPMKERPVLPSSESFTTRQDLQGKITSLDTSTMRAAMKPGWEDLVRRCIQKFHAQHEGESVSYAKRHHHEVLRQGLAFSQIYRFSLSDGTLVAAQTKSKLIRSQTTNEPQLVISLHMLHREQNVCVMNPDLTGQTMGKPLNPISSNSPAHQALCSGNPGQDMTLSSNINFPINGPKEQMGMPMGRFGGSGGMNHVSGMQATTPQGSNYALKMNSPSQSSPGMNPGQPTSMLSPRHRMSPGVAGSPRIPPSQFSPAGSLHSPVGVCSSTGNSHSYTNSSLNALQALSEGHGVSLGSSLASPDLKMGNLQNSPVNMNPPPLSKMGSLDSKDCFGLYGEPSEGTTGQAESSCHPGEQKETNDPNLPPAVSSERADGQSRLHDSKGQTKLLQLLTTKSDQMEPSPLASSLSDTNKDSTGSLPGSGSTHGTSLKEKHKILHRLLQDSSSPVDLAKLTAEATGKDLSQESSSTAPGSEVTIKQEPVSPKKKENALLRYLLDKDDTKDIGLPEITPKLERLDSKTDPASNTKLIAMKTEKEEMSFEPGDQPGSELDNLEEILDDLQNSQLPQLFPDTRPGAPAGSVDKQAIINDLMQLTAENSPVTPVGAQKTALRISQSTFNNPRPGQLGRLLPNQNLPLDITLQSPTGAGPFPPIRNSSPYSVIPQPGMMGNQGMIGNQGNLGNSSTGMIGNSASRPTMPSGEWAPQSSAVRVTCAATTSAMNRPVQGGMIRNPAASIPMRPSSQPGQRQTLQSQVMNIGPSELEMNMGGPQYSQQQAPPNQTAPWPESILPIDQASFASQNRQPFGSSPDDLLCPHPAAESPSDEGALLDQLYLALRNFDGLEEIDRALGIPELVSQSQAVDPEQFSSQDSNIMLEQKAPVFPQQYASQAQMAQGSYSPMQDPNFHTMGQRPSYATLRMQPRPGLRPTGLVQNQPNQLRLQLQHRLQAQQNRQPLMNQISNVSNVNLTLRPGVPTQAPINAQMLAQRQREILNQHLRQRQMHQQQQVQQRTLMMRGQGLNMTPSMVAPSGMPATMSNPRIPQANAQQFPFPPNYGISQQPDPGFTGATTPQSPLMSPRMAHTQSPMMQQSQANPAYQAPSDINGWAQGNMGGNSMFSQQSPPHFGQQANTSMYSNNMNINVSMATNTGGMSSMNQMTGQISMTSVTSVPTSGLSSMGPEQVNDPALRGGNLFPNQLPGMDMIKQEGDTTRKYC
# [13] = cytotoxicity toward NIH3T3 fibroblasts, dose response, counter-screen, cell-based, ATP luminescence, mouse fibroblasts (AID 2010); type: functional;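 also: cells exposed to compound for about 90 hours before reading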
# [14] = target: Peroxisome proliferator-activated receptor gamma/Nuclear receptor coactivator 3 (Homo sapiens, UniProt P37231); test: as §1, with “3 (SRC-3)” for “2 (SRC-2)”, “1301 (Confirmation screen.), 1048 (Primary screen.)]” for “1297, 1032 ]”; type: functional
# [15] = target: Peroxisome proliferator-activated receptor gamma/Nuclear receptor coactivator 1 (Homo sapiens, UniProt P37231); test: as §1, with “1 (SRC-1)” for “2 (SRC-2)”, “assays (depositor defined):AID1300, AID1808, AID504735, AID631]” for “assays: 1297, 1032 ]”; type: protein assay
# P388 = test: cells; type: functional; details: Mus musculus
# SN12K1 = test: cells; type: functional; details: Homo sapiens
# P388/ADR = test: cells; type: functional; details: Mus musculus
# Coagulation factor XII = target: T2, Coagulation factor XII (Homo sapiens, UniProt P00748); type: functional;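 also: activated factor XIIa alpha cleaving a fluorogenic AMC peptide substrate; inhibitor potency from loss of enzyme activity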
# T2 sequence (P00748 whole entry): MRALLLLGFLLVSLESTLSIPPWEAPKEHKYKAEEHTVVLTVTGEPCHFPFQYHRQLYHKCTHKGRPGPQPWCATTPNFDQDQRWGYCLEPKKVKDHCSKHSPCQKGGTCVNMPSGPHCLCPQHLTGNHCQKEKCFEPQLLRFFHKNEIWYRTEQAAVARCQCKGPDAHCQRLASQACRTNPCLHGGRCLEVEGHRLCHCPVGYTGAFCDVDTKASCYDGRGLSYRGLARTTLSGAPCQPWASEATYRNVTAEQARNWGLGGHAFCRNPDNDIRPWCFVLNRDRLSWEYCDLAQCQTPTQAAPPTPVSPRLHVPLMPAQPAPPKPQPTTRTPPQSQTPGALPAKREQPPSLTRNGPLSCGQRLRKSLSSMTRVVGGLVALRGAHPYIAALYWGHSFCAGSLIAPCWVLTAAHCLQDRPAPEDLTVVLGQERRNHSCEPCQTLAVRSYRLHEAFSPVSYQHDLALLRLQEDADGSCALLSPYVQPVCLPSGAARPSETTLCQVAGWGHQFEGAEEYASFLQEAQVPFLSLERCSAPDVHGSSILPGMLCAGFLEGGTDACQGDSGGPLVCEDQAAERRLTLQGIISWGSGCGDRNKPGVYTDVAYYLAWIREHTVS
# [16] = cytotoxicity toward DRD oncogenic fibroblasts, dose response, cell-based, non-viral oncogenic, luminescence (AID 1934); type: functional; details: Homo sapiens
# BJ [17] = test: cells; type: functional, cell-based; details: Homo sapiens
# [18] = Luminescence Cell-Based Dose Retest to Confirm Inhibitors of Cancer Stem Cells. [Related pubchem assays (depositor defined):AID2717, AID2721]; type: functional; details: Homo sapiens
# BJ [19] = test: cytotoxicity toward BJ-TERT-LT-ST fibroblasts, dose response, cell-based, RAS-independent, luminescence (AID 1935); type: functional; details: Homo sapiens;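 also: BJ fibroblasts immortalized with TERT plus LT and ST oncogenes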
# BJ [20] = test: cytotoxicity toward BJ-TERT fibroblasts, dose response, cell-based, RAS-independent, luminescence (AID 1933); type: functional; details: Homo sapiens
# BJ [21] = test: cytotoxicity toward Ras-transformed BJeLR fibroblasts, dose response, cell-based, alamar blue fluorescence, cherrypicked samples (AID 2631); type: functional; details: Homo sapiens;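 also: confirmatory dose-response assay in RAS-dependent BJ fibroblasts engineered with TERT, LT and ST, with cytotoxicity read by fluorescence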
# [22] = inhibitors of firefly luciferase expression or activity, dose response, H4 neuroglioma cells, luminescence (AID 1990); type: functional, cell-based
# [23] = inhibitors of SNCA 5'UTR-driven reporter translation, confirmation, H4 neuroglioma cells, luminescence (AID 1988); type: functional, cell-based
# [24] = luciferase reporter signal reduction – luminescence, H4-C neuroglioblastoma cells, dose response (AID 2458); type: functional, cell-based;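 also: H4 neuroglioblastoma cells stably carrying a luciferase reporter gene fusion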
# [25] = Luminescence Cell-Based Dose Response HTS to Identify Inhibitors of 5'UTR Stem-Loop Driven Prion Protein mRNA Translation in H4 Neuroglioblastoma Cells. [Related pubchem assays: 1827 (Project Summary), 1813 (Primary HTS)]; type: functional
# [26] = inhibitors of SNCA 5'UTR-driven translation, confirmation, luminescence, H4 neuroglioblastoma cells, dose confirmation (AID 2454); type: functional, cell-based;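 also: H4 neuroglioblastoma cells carrying an alpha-synuclein 5'UTR luciferase reporter; potency for inhibition of the luciferase signal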
# cells [27] = type: functional, cell-based
structure (smiles),measurement,setting,value
C=CCOC(=O)c1sc(NC(=O)c2ccco2)nc1C,EC50,[1],> 180 µM (inactive)
same,EC50,[2],29.7 µM (active)
same,EC50,[3],0.544 µM (active)
same,EC50,[4],> 150 µM (inactive)
COc1cccc(C(=O)Nc2nnc(-c3ccc(F)cc3)o2)c1,CC50,[5],15.8 µM (active)
same,EC50,[3],1.96 µM (active)
same,IC50,cells [6],1.03 µM (active)
same,EC50,[4],> 150 µM (inactive)
same,CC50,[7],31.9 µM (active)
same,EC50,Streptococcus,5.74 µM (active)
same,EC50,[8],2.33 µM (active)
CCOc1ccc(N/C=C/C(=O)c2ccccc2)cc1,AC50,HEK293,3.62 µM (active)
same,EC50,[9],0.453 µM (active)
same,EC50,[10],2 µM (active)
CN=C(S)N1N=C(c2ccc(Br)cc2)CC1c1ccc(Br)cc1 (stereo not given),EC50,[11],1.64 µM (active)
same,IC50,Beta-galactosidase,> 80 µM (inactive)
same,EC50,[12],> 8.82 µM (not active)
same,EC50,[13],> 60 µM (not active)
same,EC50,[14],> 26.5 µM (not active)
same,EC50,[15],> 2.94 µM (active)
NC1(C(=O)O)CCCC1 [CYCLOLEUCINE],GI50,P388,> 625 µM (inactive)
same,GI50,SN12K1,> 625 µM (inactive)
same,GI50,P388/ADR,> 625 µM (inactive)
Cn1cccc1/C=C1\CC(C(C)(C)C)C/C(=C\c2cccn2C)C1=O (stereo not given),AC50,HEK293,160 µM (active)
Cc1cc(C)n2nc(SCC(=O)Nc3ccc(F)cc3)nc2n1,IC50,Coagulation factor XII,> 50 µM (inactive)
CC[C@](C)(O)C(=O)O[C@H]1C(=O)O[C@@H]2C[C@H]3C(C)=C[C@H](O)[C@@H](O)[C@]3(C)[C@H]3[C@@]4(O)OC[C@]32[C@@H]1[C@@H](C)[C@H]4O,GI50,P388,45.3 µM (inactive)
same,GI50,SN12K1,7.19 µM (inactive)
same,GI50,P388/ADR,88.5 µM (inactive)
O=C(NCc1cccnc1)c1ccc(NC(=O)c2ccc(Br)cc2)cc1,EC50,[16],> 150 µM (not active)
same,EC50,BJ [17],1.3 µM (inconclusive)
same,AC50,[18],1.36 µM (active)
same,EC50,BJ [19],14 µM (active)
same,EC50,BJ [20],> 150 µM (not active)
same,EC50,BJ [21],0.169 µM (active)
COc1ccc(S(=O)(=O)N2c3cc(Cl)ccc3Oc3nc4ccccc4nc32)cc1,EC50,[16],7.55 µM (inconclusive)
same,EC50,[22],3.64 µM (inconclusive)
same,EC50,BJ [17],5.06 µM (active)
same,EC50,[23],< 0.1 µM (active)
same,EC50,[24],2.41 µM (active)
same,EC50,[25],7.56 µM (active)
same,EC50,BJ [19],3.81 µM (active)
same,EC50,BJ [20],6.91 µM (inconclusive)
same,EC50,[26],> 12 µM (not active)
same,EC50,cells [27],> 12 µM (not active)
same,EC50,BJ [21],< 0.104 µM (active)
